In the supplement of paper PMC10733146:

Columns and labels:
Assay in all cases: viability relative to DMSO control (fraction); higher = less drug effect (more viable cells)
Conditions in all cases: 48 h
[1] = tested on: primary ALL patient cells (S088)
Method in brief: (§1)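 Viability was measured as CellTiter-Glo luminescence relative to the median of 16 inner DMSO wells. Primary mononuclear tumour cells, fresh or cryopreserved, were Ficoll-isolated from blood or bone marrow or taken from processed lymph node. They were seeded at 4 × 10^4 cells per well into 384-well plates holding pre-plated compounds at five concentrations, one well each, and kept in RPMI-1640 with penicillin/streptomycin, L-glutamine and human serum at 37 °C and 5% CO2 for 48 h.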

[2] = tested on: primary AML patient cells (S006)
Method in brief: as §1

[3] = tested on: primary AML patient cells (S009)
Method in brief: as §1

[4] = tested on: primary AML patient cells (S012)
Method in brief: as §1

[5] = tested on: primary AML patient cells (S017)
Method in brief: as §1

[6] = tested on: primary AML patient cells (S056)
Method in brief: as §1

[7] = tested on: primary AML patient cells (S060)
Method in brief: as §1

[8] = tested on: primary AML patient cells (S071)
Method in brief: as §1

[9] = tested on: primary AML patient cells (S072)
Method in brief: as §1

[10] = tested on: primary AML patient cells (S079)
Method in brief: as §1

[11] = tested on: primary AML patient cells (S085)
Method in brief: as §1

[12] = tested on: primary B-PLL patient cells (S016)
Method in brief: as §1

[13] = tested on: primary BL patient cells (S005)
Method in brief: as §1

[14] = tested on: primary CLL patient cells (S031)
Method in brief: as §1

[15] = tested on: primary CLL patient cells (S043)
Method in brief: as §1

[16] = tested on: primary DLBCL patient cells (S082)
Method in brief: as §1

[17] = tested on: primary FL patient cells (S087)
Method in brief: as §1

[18] = tested on: primary MCL patient cells (S041)
Method in brief: as §1

[19] = tested on: primary MCL patient cells (S053)
Method in brief: as §1

[20] = tested on: primary MCL patient cells (S063)
Method in brief: as §1

With `CC#CC(=O)N1CCC[C@H]1c1nc(-c2ccc(C(=O)Nc3ccccn3)cc2)c2c(N)nccn12` [Acalabrutinib (ACP-196)] the viability ([1]; 0.008 µM) was 1.04, the viability ([1]; 0.04 µM) was 1.04 and the viability ([1]; 0.2 µM) was 1.04. The viability ([1]; 1 µM) was 1.02, the viability ([1]; 5 µM) was 1.16 and the viability ([2]; 0.008 µM) was 1.08. For the same compound, the viability ([2]; 0.04 µM) was 1.1, the viability ([2]; 0.2 µM) was 1.09 and the viability ([2]; 1 µM) was 1.08. The viability ([2]; 5 µM) was 1.04, the viability ([3]; 0.008 µM) was 1.19 and the viability ([3]; 0.04 µM) was 1.11. The viability ([3]; 0.2 µM) was 1.16, the viability ([3]; 1 µM) was 1.09 and the viability ([3]; 5 µM) was 1.12. It also gave a viability ([4]; 0.008 µM) of 1.08, a viability ([4]; 0.04 µM) of 1.16 and a viability ([4]; 0.2 µM) of 1.14. The viability ([4]; 1 µM) was 1.16, the viability ([4]; 5 µM) was 1.21 and the viability ([5]; 0.008 µM) was 1.32. The viability ([5]; 0.04 µM) was 1.1, the viability ([5]; 0.2 µM) was 1.15 and the viability ([5]; 1 µM) was 1.36. It also gave a viability ([5]; 5 µM) of 0.997, a viability ([6]; 0.008 µM) of 1.04 and a viability ([6]; 0.04 µM) of 1.55. For the same compound, the viability ([6]; 0.2 µM) was 1.02, the viability ([6]; 1 µM) was 0.929 and the viability ([6]; 5 µM) was 0.766. The viability ([7]; 0.008 µM) was 1.08, the viability ([7]; 0.04 µM) was 1.06 and the viability ([7]; 0.2 µM) was 1.04. For the same compound, the viability ([7]; 1 µM) was 1.05, the viability ([7]; 5 µM) was 1.05 and the viability ([8]; 0.008 µM) was 1.06. The viability ([8]; 0.04 µM) was 1.02, the viability ([8]; 0.2 µM) was 1.01 and the viability ([8]; 1 µM) was 1.01. The viability ([8]; 5 µM) was 0.994, the viability ([9]; 0.008 µM) was 0.995 and the viability ([9]; 0.04 µM) was 0.971. For the same compound, the viability ([9]; 0.2 µM) was 0.989, the viability ([9]; 1 µM) was 0.941 and the viability ([9]; 5 µM) was 0.971. The viability ([10]; 0.008 µM) was 0.948, the viability ([10]; 0.04 µM) was 0.906 and the viability ([10]; 0.2 µM) was 0.859. The viability ([10]; 1 µM) was 1.11, the viability ([10]; 5 µM) was 0.965 and the viability ([11]; 0.008 µM) was 1.05. It also gave a viability ([11]; 0.04 µM) of 1.14, a viability ([11]; 0.2 µM) of 1.01 and a viability ([11]; 1 µM) of 0.989. It also gave a viability ([11]; 5 µM) of 1.02, a viability ([12]; 0.008 µM) of 0.748 and a viability ([12]; 0.04 µM) of 0.627. The viability ([12]; 0.2 µM) was 0.601, the viability ([12]; 1 µM) was 0.549 and the viability ([12]; 5 µM) was 0.6. For the same compound, the viability ([13]; 0.008 µM) was 1.07, the viability ([13]; 0.04 µM) was 1.15 and the viability ([13]; 0.2 µM) was 1.05. For the same compound, the viability ([13]; 1 µM) was 1.17, the viability ([13]; 5 µM) was 1.08 and the viability ([14]; 0.008 µM) was 0.877. It also gave a viability ([14]; 0.04 µM) of 0.817, a viability ([14]; 0.2 µM) of 0.742 and a viability ([14]; 1 µM) of 0.722. For the same compound, the viability ([14]; 5 µM) was 0.713, the viability ([15]; 0.008 µM) was 0.794 and the viability ([15]; 0.04 µM) was 0.768. It also gave a viability ([15]; 0.2 µM) of 0.73, a viability ([15]; 1 µM) of 0.701 and a viability ([15]; 5 µM) of 0.72. It also gave a viability ([16]; 0.008 µM) of 0.804, a viability ([16]; 0.04 µM) of 0.675 and a viability ([16]; 0.2 µM) of 0.559. It also gave a viability ([16]; 1 µM) of 0.462, a viability ([16]; 5 µM) of 0.447 and a viability ([17]; 0.008 µM) of 1.08. For the same compound, the viability ([17]; 0.04 µM) was 1.03, the viability ([17]; 0.2 µM) was 1.07 and the viability ([17]; 1 µM) was 0.994. It also gave a viability ([17]; 5 µM) of 1.04, a viability ([18]; 0.008 µM) of 1 and a viability ([18]; 0.04 µM) of 1. It also gave a viability ([18]; 0.2 µM) of 0.859, a viability ([18]; 1 µM) of 0.899 and a viability ([18]; 5 µM) of 0.855. It also gave a viability ([19]; 0.008 µM) of 0.711, a viability ([19]; 0.04 µM) of 0.636 and a viability ([19]; 0.2 µM) of 0.656. It also gave a viability ([19]; 1 µM) of 0.587, a viability ([19]; 5 µM) of 0.66 and a viability ([20]; 0.008 µM) of 0.697. It also gave a viability ([20]; 0.04 µM) of 0.328, a viability ([20]; 0.2 µM) of 0.276 and a viability ([20]; 1 µM) of 0.246. It also gave a viability ([20]; 5 µM) of 0.262.
